Reference: the kinase profiling compilation of Christmann-Franck et al. (2016)

What was measured:
Test in all cases: radiometric filter-binding kinase assay, Kinase HotSpot
Settings in all cases: compound 0.5 µM; ATP 10 µM
[1] = biological target: WEE1 (human) (UniProt P30291)
[2] = biological target: ACVR1B (human) (UniProt P36896)
[3] = biological target: TEC (human) (UniProt P42680)
[4] = biological target: PAK4 (human) (UniProt O96013)
[5] = biological target: ULK1 (human) (UniProt O75385)
[6] = biological target: MAPK14 (human) (UniProt Q16539)
[7] = biological target: NTRK2 (human) (UniProt Q16620)
[8] = biological target: NEK2 (human) (UniProt P51955)
[9] = biological target: CAMK1G (human) (UniProt Q96NX5)
[10] = biological target: MAPK12 (human) (UniProt P53778)
[11] = biological target: RET (human) (UniProt P07949)
[12] = biological target: SGK3 (human) (UniProt Q96BR1)
[13] = biological target: CAMK4 (human) (UniProt Q16566)
[14] = biological target: PIM3 (human) (UniProt Q86V86)
[15] = biological target: IKBKB (human) (UniProt O14920)
[16] = biological target: IRAK4 (human) (UniProt Q9NWZ3)
[17] = biological target: NTRK3 (human) (UniProt Q16288)
[18] = biological target: BTK (human) (UniProt Q06187)
[19] = biological target: FLT1 (human) (UniProt P17948)
[20] = biological target: CDK1 CCNA2 (human) (UniProt P06493+P20248)
[21] = biological target: FES (human) (UniProt P07332)
[22] = biological target: TEK (human) (UniProt Q02763)
[23] = biological target: CSNK2A1 (human) (UniProt P68400)
[24] = biological target: HIPK4 (human) (UniProt Q8NE63)
[25] = biological target: MAP4K5 (human) (UniProt Q9Y4K4)
[26] = biological target: RPS6KA3 KD1 KD2 (human) (UniProt P51812)
[27] = biological target: AURKA (human) (UniProt O14965)
[28] = biological target: ZAP70 (human) (UniProt P43403)
[29] = biological target: CSK (human) (UniProt P41240)
[30] = biological target: IKBKE (human) (UniProt Q14164)
[31] = biological target: PAK2 (human) (UniProt Q13177)
[32] = biological target: PRKCB2 (human) (UniProt P05771)
[33] = biological target: MAPK1 (human) (UniProt P28482)
[34] = biological target: KDR (human) (UniProt P35968)
[35] = biological target: SYK (human) (UniProt P43405)
[36] = biological target: RAF1 (human) (UniProt P04049)
[37] = biological target: PRKCI (human) (UniProt P41743)
[38] = biological target: DAPK1 (human) (UniProt P53355)
[39] = biological target: EPHB1 (human) (UniProt P54762)
[40] = biological target: GRK4 (human) (UniProt P32298)
[41] = biological target: STK3 (human) (UniProt Q13188)
[42] = biological target: PAK7 (human) (UniProt Q9P286)

Chain of DAPK1 (human) (P53355 whole entry, looked up): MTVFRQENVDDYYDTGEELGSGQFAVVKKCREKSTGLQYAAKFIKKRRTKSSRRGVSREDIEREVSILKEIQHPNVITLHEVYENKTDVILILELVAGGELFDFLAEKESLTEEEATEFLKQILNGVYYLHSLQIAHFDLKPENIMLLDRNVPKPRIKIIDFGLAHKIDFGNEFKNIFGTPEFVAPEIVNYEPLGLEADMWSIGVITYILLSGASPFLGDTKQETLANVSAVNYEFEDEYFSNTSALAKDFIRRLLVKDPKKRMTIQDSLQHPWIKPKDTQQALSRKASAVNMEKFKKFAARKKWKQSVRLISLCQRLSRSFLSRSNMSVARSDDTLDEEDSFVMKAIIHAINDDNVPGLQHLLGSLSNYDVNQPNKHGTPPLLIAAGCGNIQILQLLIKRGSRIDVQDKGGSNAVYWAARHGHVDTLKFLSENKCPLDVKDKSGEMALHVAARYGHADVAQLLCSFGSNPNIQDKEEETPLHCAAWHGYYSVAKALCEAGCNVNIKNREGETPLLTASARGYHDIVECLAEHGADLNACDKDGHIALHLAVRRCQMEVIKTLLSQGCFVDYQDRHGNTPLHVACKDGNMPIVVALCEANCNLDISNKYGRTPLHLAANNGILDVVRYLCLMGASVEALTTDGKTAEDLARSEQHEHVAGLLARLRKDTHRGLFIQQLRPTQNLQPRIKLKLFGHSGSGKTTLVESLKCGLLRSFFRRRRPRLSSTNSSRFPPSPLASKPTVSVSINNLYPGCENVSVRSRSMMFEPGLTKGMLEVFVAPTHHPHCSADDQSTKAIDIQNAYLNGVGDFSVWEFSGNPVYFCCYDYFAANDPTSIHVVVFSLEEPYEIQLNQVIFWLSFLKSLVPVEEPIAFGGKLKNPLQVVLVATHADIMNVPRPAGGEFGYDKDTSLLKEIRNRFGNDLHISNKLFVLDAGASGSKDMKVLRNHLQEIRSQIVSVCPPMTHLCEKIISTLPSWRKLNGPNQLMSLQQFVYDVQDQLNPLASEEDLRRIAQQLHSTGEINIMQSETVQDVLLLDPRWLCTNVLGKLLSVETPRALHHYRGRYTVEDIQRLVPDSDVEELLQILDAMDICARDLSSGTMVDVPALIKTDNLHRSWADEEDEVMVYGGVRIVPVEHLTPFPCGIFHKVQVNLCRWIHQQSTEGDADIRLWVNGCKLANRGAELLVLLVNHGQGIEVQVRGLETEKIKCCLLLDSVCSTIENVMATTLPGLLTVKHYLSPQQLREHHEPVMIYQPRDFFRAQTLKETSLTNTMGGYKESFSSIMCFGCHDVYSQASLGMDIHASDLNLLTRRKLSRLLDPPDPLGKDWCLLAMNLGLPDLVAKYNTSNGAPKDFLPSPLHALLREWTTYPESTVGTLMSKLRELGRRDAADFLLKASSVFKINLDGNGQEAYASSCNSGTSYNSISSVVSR
Chain of ZAP70 (human) (P43403 whole entry, looked up): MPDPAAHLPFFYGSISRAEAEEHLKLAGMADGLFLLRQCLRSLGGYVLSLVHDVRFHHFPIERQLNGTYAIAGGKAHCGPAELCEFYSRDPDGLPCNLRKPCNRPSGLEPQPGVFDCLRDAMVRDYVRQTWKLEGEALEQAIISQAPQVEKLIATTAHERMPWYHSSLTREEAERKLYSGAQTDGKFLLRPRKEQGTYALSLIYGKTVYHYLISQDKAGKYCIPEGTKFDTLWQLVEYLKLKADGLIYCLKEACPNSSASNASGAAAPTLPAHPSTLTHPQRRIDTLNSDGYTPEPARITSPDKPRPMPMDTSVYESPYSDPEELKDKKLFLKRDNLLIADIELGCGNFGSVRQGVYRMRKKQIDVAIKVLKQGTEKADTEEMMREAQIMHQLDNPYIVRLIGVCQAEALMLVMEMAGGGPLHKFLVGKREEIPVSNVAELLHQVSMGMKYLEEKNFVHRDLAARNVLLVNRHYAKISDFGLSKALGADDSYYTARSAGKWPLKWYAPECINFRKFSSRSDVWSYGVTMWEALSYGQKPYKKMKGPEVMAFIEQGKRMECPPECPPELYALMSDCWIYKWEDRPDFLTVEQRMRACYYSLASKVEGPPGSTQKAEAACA
Chain of PRKCI (human) (P41743 whole entry, looked up): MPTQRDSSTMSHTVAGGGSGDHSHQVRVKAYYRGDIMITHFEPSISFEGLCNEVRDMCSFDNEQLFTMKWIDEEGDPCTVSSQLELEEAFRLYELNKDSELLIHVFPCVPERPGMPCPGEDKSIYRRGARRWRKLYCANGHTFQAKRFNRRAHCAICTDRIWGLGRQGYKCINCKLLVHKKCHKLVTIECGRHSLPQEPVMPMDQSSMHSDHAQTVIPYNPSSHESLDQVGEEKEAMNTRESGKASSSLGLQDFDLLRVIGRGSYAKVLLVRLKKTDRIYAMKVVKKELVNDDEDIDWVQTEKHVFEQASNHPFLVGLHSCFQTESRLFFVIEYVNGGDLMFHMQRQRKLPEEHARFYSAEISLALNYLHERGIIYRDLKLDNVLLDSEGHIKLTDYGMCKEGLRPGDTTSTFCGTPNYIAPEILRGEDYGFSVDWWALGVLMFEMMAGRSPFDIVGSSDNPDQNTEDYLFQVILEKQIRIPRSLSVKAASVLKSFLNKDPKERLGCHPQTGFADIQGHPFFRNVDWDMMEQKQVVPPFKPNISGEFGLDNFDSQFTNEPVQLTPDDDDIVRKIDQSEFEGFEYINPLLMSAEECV
Chain of MAP4K5 (human) (Q9Y4K4 whole entry, looked up): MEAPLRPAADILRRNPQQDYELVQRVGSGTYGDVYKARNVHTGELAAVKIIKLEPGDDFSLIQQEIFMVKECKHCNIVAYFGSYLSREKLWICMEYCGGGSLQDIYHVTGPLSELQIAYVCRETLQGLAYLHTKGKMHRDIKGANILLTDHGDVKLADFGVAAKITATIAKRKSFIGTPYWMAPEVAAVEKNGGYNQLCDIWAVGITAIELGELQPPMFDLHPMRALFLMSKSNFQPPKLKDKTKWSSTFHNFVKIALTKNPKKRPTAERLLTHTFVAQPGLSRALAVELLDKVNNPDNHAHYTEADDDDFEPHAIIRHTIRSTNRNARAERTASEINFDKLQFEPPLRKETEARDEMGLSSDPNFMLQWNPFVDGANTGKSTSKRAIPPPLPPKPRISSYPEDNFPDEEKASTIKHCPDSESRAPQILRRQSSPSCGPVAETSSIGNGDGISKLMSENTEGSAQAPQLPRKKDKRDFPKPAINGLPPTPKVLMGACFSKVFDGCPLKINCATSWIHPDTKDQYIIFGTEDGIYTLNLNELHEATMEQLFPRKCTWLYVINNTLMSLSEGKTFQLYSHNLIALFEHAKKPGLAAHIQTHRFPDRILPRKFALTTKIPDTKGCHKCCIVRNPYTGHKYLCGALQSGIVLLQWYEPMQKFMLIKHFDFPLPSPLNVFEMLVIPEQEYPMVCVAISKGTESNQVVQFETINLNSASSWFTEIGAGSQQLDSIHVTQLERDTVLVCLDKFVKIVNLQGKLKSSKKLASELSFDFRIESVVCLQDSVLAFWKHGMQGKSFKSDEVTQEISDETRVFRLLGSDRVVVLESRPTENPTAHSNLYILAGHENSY
Chain of SGK3 (human) (Q96BR1 whole entry, looked up): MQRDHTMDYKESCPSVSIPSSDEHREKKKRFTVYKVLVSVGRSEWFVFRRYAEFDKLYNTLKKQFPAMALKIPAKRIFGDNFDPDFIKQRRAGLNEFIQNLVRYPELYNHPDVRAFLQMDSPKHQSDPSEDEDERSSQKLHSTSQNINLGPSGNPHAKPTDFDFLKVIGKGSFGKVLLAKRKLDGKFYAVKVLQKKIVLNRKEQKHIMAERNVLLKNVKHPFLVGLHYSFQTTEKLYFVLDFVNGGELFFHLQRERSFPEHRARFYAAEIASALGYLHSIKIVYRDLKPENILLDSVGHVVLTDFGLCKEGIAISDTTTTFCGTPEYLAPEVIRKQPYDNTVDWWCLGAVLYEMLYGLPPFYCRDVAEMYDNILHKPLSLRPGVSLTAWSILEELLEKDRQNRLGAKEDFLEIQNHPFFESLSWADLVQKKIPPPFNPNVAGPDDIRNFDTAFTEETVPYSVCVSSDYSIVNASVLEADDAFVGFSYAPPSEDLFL
Chain of AURKA (human) (O14965 whole entry, looked up): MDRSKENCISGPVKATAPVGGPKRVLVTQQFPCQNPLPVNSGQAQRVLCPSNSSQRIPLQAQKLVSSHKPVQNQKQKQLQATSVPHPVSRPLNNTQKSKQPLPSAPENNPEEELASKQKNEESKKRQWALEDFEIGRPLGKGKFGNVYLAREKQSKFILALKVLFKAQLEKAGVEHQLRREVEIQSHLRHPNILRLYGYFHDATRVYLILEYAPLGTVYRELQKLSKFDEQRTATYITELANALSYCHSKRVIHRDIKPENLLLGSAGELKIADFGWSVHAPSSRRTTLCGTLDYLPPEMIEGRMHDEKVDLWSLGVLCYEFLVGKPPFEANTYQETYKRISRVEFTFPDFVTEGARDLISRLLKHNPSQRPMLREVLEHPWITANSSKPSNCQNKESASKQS
Chain of BTK (human) (Q06187 whole entry, looked up): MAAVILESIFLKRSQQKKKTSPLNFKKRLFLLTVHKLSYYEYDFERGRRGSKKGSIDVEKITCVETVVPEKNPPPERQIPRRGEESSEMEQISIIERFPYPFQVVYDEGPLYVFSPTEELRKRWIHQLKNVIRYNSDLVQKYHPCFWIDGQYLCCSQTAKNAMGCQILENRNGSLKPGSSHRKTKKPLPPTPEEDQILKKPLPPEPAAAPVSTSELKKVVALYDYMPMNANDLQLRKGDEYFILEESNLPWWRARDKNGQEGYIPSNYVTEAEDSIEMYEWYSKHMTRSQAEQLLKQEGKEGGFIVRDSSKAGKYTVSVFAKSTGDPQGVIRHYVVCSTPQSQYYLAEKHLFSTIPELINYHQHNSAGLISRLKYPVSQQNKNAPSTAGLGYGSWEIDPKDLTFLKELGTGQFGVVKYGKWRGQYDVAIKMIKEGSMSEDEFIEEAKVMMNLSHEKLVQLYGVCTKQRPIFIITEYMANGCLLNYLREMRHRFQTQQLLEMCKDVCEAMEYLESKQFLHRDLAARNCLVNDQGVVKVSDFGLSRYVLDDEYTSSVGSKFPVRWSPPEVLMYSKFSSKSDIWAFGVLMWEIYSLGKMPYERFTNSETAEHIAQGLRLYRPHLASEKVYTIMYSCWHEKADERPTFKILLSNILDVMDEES

Compound: CN(C)S(=O)(=O)c1ccc2c(c1)/C(=C/c1cc3c([nH]1)CCCC3)C(=O)N2
- residual activity [1]: 94.5%
- residual activity [2]: 105%
- residual activity [3]: 116%
- residual activity [4]: 97.6%
- residual activity [5]: 6.13%
- residual activity [6]: 98.8%
- residual activity [7]: 15.6%
- residual activity [8]: 98%
- residual activity [9]: 97.1%
- residual activity [10]: 103%
- residual activity [11]: 6.29%
- residual activity [12]: 98.1%
- residual activity [13]: 96.6%
- residual activity [14]: 117%
- residual activity [15]: 107%
- residual activity [16]: 57.7%
- residual activity [17]: 2.88%
- residual activity [18]: 97.4%
- residual activity [19]: 84.9%
- residual activity [20]: 70.6%
- residual activity [21]: 76.9%
- residual activity [22]: 95.4%
- residual activity [23]: 105%
- residual activity [24]: 98.8%
- residual activity [25]: 3.08%
- residual activity [26]: 70.1%
- residual activity [27]: 16.1%
- residual activity [28]: 90%
- residual activity [29]: 93.1%
- residual activity [30]: 87.9%
- residual activity [31]: 92.5%
- residual activity [32]: 92%
- residual activity [33]: 101%
- residual activity [34]: 96.9%
- residual activity [35]: 77.7%
- residual activity [36]: 97.7%
- residual activity [37]: 95.9%
- residual activity [38]: 102%
- residual activity [39]: 82.8%
- residual activity [40]: 79.8%
- residual activity [41]: 24.3%

Compound: COc1ccc(C(=O)Nc2sc3c(c2C(N)=O)CCCC3)cc1OC
- residual activity [1]: 92.3%
- residual activity [2]: 101%
- residual activity [3]: 115%
- residual activity [4]: 95.9%
- residual activity [5]: 96%
- residual activity [6]: 97.5%
- residual activity [42]: 96.6%
- residual activity [7]: 67.4%
- residual activity [8]: 95.4%
- residual activity [9]: 99.4%
- residual activity [10]: 96.5%
- residual activity [11]: 102%
- residual activity [12]: 103%
- residual activity [13]: 95.7%
- residual activity [14]: 109%
- residual activity [15]: 87.6%
- residual activity [16]: 94.8%
- residual activity [17]: 57.7%
- residual activity [18]: 104%
- residual activity [19]: 99.1%
- residual activity [20]: 105%
- residual activity [21]: 102%
- residual activity [22]: 96.4%
- residual activity [23]: 98.8%
- residual activity [24]: 103%
- residual activity [25]: 94.3%
- residual activity [26]: 93%
- residual activity [27]: 97.9%
- residual activity [28]: 95.6%
- residual activity [29]: 98.8%
- residual activity [30]: 106%
- residual activity [31]: 99.1%
- residual activity [32]: 93.5%
- residual activity [33]: 91.2%
- residual activity [34]: 78.2%
- residual activity [35]: 91.2%
- residual activity [36]: 94.8%
- residual activity [37]: 91.8%
- residual activity [38]: 78.2%
- residual activity [39]: 95%
- residual activity [40]: 95.1%
- residual activity [41]: 99.6%

Compound: O=C1Nc2ccc(Br)cc2/C1=C\c1cc2c([nH]1)CCCC2
- residual activity [1]: 95.9%
- residual activity [2]: 99%
- residual activity [3]: 129%
- residual activity [4]: 76.8%
- residual activity [5]: 69.4%
- residual activity [42]: 85.4%
- residual activity [7]: 43.6%
- residual activity [8]: 87.9%
- residual activity [9]: 103%
- residual activity [10]: 93%
- residual activity [11]: 42.9%
- residual activity [12]: 97.6%
- residual activity [13]: 97.5%
- residual activity [14]: 87.5%
- residual activity [15]: 102%
- residual activity [16]: 67.2%
- residual activity [17]: 11.9%
- residual activity [18]: 90.5%
- residual activity [19]: 73.4%
- residual activity [20]: 96.3%
- residual activity [21]: 83.8%
- residual activity [22]: 98.2%
- residual activity [23]: 96.1%
- residual activity [24]: 104%
- residual activity [25]: 17.7%
- residual activity [26]: 80.9%
- residual activity [27]: 87.5%
- residual activity [28]: 93.9%
- residual activity [29]: 98.5%
- residual activity [30]: 89.5%
- residual activity [31]: 90%
- residual activity [32]: 85.5%
- residual activity [33]: 103%
- residual activity [34]: 70.9%
- residual activity [35]: 90.5%
- residual activity [36]: 88.2%
- residual activity [37]: 92%
- residual activity [38]: 111%
- residual activity [39]: 85.5%
- residual activity [40]: 101%
- residual activity [41]: 60.7%

Compound: O=C1C(Cl)=C(N2C(=O)CCC2=O)C(=O)c2ccccc21
- residual activity [1]: 93%
- residual activity [2]: 106%
- residual activity [3]: 101%
- residual activity [4]: 114%
- residual activity [5]: 107%
- residual activity [6]: 88.1%
- residual activity [42]: 108%
- residual activity [7]: 104%
- residual activity [8]: 88.6%
- residual activity [9]: 98.2%
- residual activity [10]: 100%
- residual activity [11]: 98%
- residual activity [12]: 103%
- residual activity [14]: 101%
- residual activity [15]: 101%
- residual activity [16]: 89.1%
- residual activity [17]: 98.6%
- residual activity [18]: 103%
- residual activity [19]: 87.8%
- residual activity [20]: 99.8%
- residual activity [21]: 97.5%
- residual activity [22]: 96.7%
- residual activity [23]: 99.3%
- residual activity [24]: 98.2%
- residual activity [25]: 90.4%
- residual activity [26]: 101%
- residual activity [27]: 105%
- residual activity [28]: 93.8%
- residual activity [29]: 79.5%
- residual activity [30]: 99.6%
- residual activity [31]: 104%
- residual activity [32]: 108%
- residual activity [33]: 73.6%
- residual activity [34]: 88.3%
- residual activity [35]: 95.9%
- residual activity [36]: 93%
- residual activity [37]: 96.6%
- residual activity [38]: 101%
- residual activity [39]: 97.2%
- residual activity [40]: 97.6%
- residual activity [41]: 98.2%
